Converted amounts (≈) assume the structure as drawn. Read-outs that look alike come from different tables or passages of the source.
Tests used:
[1] = tested on: Staphylococcus aureus Smith; test: in vivo antibacterial activity, survival of infected mice (Table III); parameters: species or system Charles River CD-1 mice; settings: subcutaneous
Protocol: Charles River CD-1 mice were infected with either Klebsiella pneumoniae AD or Staphylococcus aureus Smith. A single subcutaneous dose of the test compound was administered 1/2 hour after infection. […] The results appear in Tables II and III, wherein the representative test compounds are identified by the number of their hereinafter described examples.

[2] = tested on: Escherichia coli VGH 84-19; test: in vitro antibacterial MIC, agar plate dilution; type: cell-based; settings: 18 hours, 35° C.
Outline: (§1)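 Agar plate dilution on Mueller-Hinton agar, inoculum about 10^4 CFU per spot applied with a Steers replicator. MIC (mcg/ml) is the lowest compound concentration preventing visible growth after 18 h at 35 °C.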

[3] = tested on: Streptococcus faecalis UCI 85-30; test: in vitro antibacterial MIC, agar plate dilution; type: cell-based; settings: Enterococcus faecalis, UCI8530, 18 h, 35° C., read-out: MIC
Outline: as §1

[4] = tested on: Streptococcus faecalis UCI 85-19; test: in vitro antibacterial MIC, agar plate dilution; type: cell-based; settings: Enterococcus faecalis, UCI8519, 18 h, 35° C., read-out: MIC
Outline: as §1

[5] = tested on: Pseudomonas aeruginosa VGH 84-4; test: in vitro antibacterial MIC, agar plate dilution; type: cell-based; settings: Pseudomonas aeruginosa, VGH844, 18 h, 35° C., read-out: MIC
Outline: as §1

[6] = tested on: Pseudomonas aeruginosa K 84-16; test: in vitro antibacterial MIC, agar plate dilution; type: cell-based; settings: Pseudomonas aeruginosa, K8416, 18 h, 35° C., read-out: MIC
Outline: as §1

[7] = tested on: Streptococcus faecalis VGH 84-69; test: in vitro antibacterial MIC, agar plate dilution; type: cell-based; settings: Enterococcus faecalis, VGH8469, 18 h, 35° C., read-out: MIC
Outline: as §1

[8] = tested on: Staphylococcus aureus Smith; test: in vitro antibacterial MIC, agar plate dilution; type: cell-based; settings: Staphylococcus aureus, 18 h, 35° C., read-out: MIC
Outline: as §1

[9] = tested on: Klebsiella pneumoniae MOR 84-24; test: in vitro antibacterial MIC, agar plate dilution; type: cell-based; settings: Klebsiella pneumoniae, MOR8424, 18 h, 35° C., read-out: MIC
Outline: as §1

[10] = tested on: Escherichia coli MOR 84-20; test: in vitro antibacterial MIC, agar plate dilution; type: cell-based; settings: 18 hours, 35° C.
Outline: as §1

Escherichia coli LL 311 = test: in vitro antibacterial MIC, agar plate dilution; type: cell-based; settings: Escherichia coli, LL311, 18 h, 35° C., read-out: MIC
Outline: as §1

[11] = tested on: Serratia marcescens CMC 83-74; test: in vitro antibacterial MIC, agar plate dilution; type: cell-based; settings: Serratia marcescens, CMC8374, 18 h, 35° C., read-out: MIC
Outline: as §1

[12] = tested on: Proteus rettgeri CMC 84-41; test: in vitro antibacterial MIC, agar plate dilution; type: cell-based; settings: Providencia rettgeri, CMC8441, 18 h, 35° C., read-out: MIC
Outline: as §1

[13] = tested on: Escherichia coli CMC 84-50; test: in vitro antibacterial MIC, agar plate dilution; type: cell-based; settings: Escherichia coli, CMC8450, 18 h, 35° C., read-out: MIC
Outline: as §1

[14] = tested on: Serratia marcescens VGH 84-30; test: in vitro antibacterial MIC, agar plate dilution; type: cell-based; settings: Serratia marcescens, VGH8430, 18 h, 35° C., read-out: MIC
Outline: as §1

[15] = tested on: Pseudomonas aeruginosa VGH 84-3; test: in vitro antibacterial MIC, agar plate dilution; type: cell-based; settings: Pseudomonas aeruginosa, VGH843, 18 h, 35° C., read-out: MIC
Outline: as §1

[16] = tested on: Staphylococcus aureus K 82-26; test: in vitro antibacterial MIC, agar plate dilution; type: cell-based; settings: Staphylococcus aureus, K8226, 18 h, 35° C., read-out: MIC
Outline: as §1

[17] = tested on: Streptococcus faecalis CMC 83-120; test: in vitro antibacterial MIC, agar plate dilution; type: cell-based; settings: Enterococcus faecalis, CMC83120, 18 h, 35° C., read-out: MIC
Outline: as §1

[18] = tested on: Escherichia coli CMC 84-11; test: in vitro antibacterial MIC, agar plate dilution; type: cell-based; settings: Escherichia coli, CMC8411, 18 h, 35° C., read-out: MIC
Outline: as §1

[19] = tested on: Staphylococcus aureus VGH 84-45; test: in vitro antibacterial MIC, agar plate dilution; type: cell-based; settings: Staphylococcus aureus, VGH8445, 18 h, 35° C., read-out: MIC
Outline: as §1

[20] = tested on: Morganella morganii CMC 84-38; test: in vitro antibacterial MIC, agar plate dilution; type: cell-based; settings: Morganella morganii, CMC8438, 18 h, 35° C., read-out: MIC
Outline: as §1

[21] = tested on: Pseudomonas aeruginosa LL-1244; test: in vitro antibacterial MIC, agar plate dilution; type: cell-based; settings: Pseudomonas aeruginosa, LL1244, 18 h, 35° C., read-out: MIC
Outline: as §1

[22] = tested on: Staphylococcus aureus VGH 84-47; test: in vitro antibacterial MIC, agar plate dilution; type: cell-based; settings: 18 hours, 35° C.
Outline: as §1

Citrobacter div. K 82-24 = test: in vitro antibacterial MIC, agar plate dilution; type: cell-based; settings: Citrobacter, DIV.K8224, 18 h, 35° C., read-out: MIC
Outline: as §1

[23] = tested on: Providencia stuarti CMC 83-3; test: in vitro antibacterial MIC, agar plate dilution; type: cell-based; settings: Providencia, CMC833, 18 h, 35° C., read-out: MIC
Outline: as §1

[24] = tested on: Serratia marcescens MOR 84-41; test: in vitro antibacterial MIC, agar plate dilution; type: cell-based; settings: Serratia marcescens, MOR8441, 18 h, 35° C., read-out: MIC
Outline: as §1

[25] = tested on: Enterobacter cloacae K 84-10; test: in vitro antibacterial MIC, agar plate dilution; type: cell-based; settings: Enterobacter cloacae, K8410, 18 h, 35° C., read-out: MIC
Outline: as §1

[26] = tested on: Morganella morganii CMC 84-37; test: in vitro antibacterial MIC, agar plate dilution; type: cell-based; settings: 18 hours, 35° C.
Outline: as §1

[27] = tested on: Klebsiella pneumoniae CMC 84-31; test: in vitro antibacterial MIC, agar plate dilution; type: cell-based; settings: Klebsiella pneumoniae, CMC8431, 18 h, 35° C., read-out: MIC
Outline: as §1

[28] = tested on: Enterobacter cloacae VGH 84-39; test: in vitro antibacterial MIC, agar plate dilution; type: cell-based; settings: Enterobacter cloacae, VGH8439, 18 h, 35° C., read-out: MIC
Outline: as §1

[29] = tested on: Pseudomonas aeruginosa CMC 83-20; test: in vitro antibacterial MIC, agar plate dilution; type: cell-based; settings: Pseudomonas aeruginosa, CMC8320, 18 h, 35° C., read-out: MIC
Outline: as §1

[30] = tested on: Streptococcus faecalis VGH 84-65; test: in vitro antibacterial MIC, agar plate dilution; type: cell-based; settings: Enterococcus faecalis, VGH8465, 18 h, 35° C., read-out: MIC
Outline: as §1

[31] = tested on: Morganella morganii MOR 84-45; test: in vitro antibacterial MIC, agar plate dilution; type: cell-based; settings: Morganella morganii, MOR8445, 18 h, 35° C., read-out: MIC
Outline: as §1

[32] = tested on: Enterobacter cloacae MOR 84-30; test: in vitro antibacterial MIC, agar plate dilution; type: cell-based; settings: Enterobacter cloacae, MOR8430, 18 h, 35° C., read-out: MIC
Outline: as §1

[33] = tested on: Proteus rettgeri IO 83-21; test: in vitro antibacterial MIC, agar plate dilution; type: cell-based; settings: Providencia rettgeri, IO8321, 18 h, 35° C., read-out: MIC
Outline: as §1

[34] = tested on: Escherichia coli ATCC 25922; test: in vitro antibacterial MIC, agar plate dilution; type: cell-based; settings: 35° C.
Outline: as §1

[35] = tested on: Serratia marcescens K 84-18; test: in vitro antibacterial MIC, agar plate dilution; type: cell-based; settings: Serratia marcescens, K8418, 18 h, 35° C., read-out: MIC
Outline: as §1

[36] = tested on: Staphylococcus aureus CMC 83-131; test: in vitro antibacterial MIC, agar plate dilution; type: cell-based; settings: Staphylococcus aureus, CMC83131, 18 h, 35° C., read-out: MIC
Outline: as §1

[37] = tested on: Klebsiella pneumoniae IO 83-5; test: in vitro antibacterial MIC, agar plate dilution; type: cell-based; settings: Klebsiella pneumoniae, IO835, 18 h, 35° C., read-out: MIC
Outline: as §1

[38] = tested on: Morganella morganii VHG 84-12; test: in vitro antibacterial MIC, agar plate dilution; type: cell-based; settings: Morganella morganii, VHG8412, 18 h, Morganella morganii VHG 84-12 (VGH 84-12 for Example 131), 35° C., read-out: MIC
Outline: as §1

FCC1CNCCN1 (stereo not drawn) [Example 23, 2-(Fluoromethyl)piperazine]
Survival Ratio 7 Days After Infection ([1]; 4 mg/kg single dose): 0/5
Survival Ratio 7 Days After Infection ([1]; 8 mg/kg single dose): 0/5
Survival Ratio 7 Days After Infection ([1]; 16 mg/kg single dose): 5/5
Survival Ratio 7 Days After Infection ([1]; 32 mg/kg single dose): 5/5
Survival Ratio 7 Days After Infection ([1]; 64 mg/kg single dose): 5/5

O=C(O)c1cn(C2CC2)c2cc(N3CCNC(c4ccccn4)C3)c(F)cc2c1=O (stereo not drawn) [Example 128, 1-Cyclopropyl-6-fluoro-1.4-dihydro-4-oxo-7-[3-(2-pyridinyl) -1-piperazinyl]-3-quinolinecarboxylic acid]
MIC [2]: 0.25 µg/mL (≈ 0.612 µM)
MIC [3]: 8 µg/mL (≈ 19.6 µM)
MIC [4]: 2 µg/mL (≈ 4.9 µM)
MIC [5]: 8 µg/mL (≈ 19.6 µM)
MIC [6]: 16 µg/mL (≈ 39.2 µM)
MIC [7]: 4 µg/mL (≈ 9.79 µM)
MIC [8]: 0.06 µg/mL (≈ 0.147 µM)
MIC [9]: 1 µg/mL (≈ 2.45 µM)
MIC [10]: 0.25 µg/mL (≈ 0.612 µM)
MIC (Escherichia coli LL 311): 0.06 µg/mL (≈ 0.147 µM)
MIC [11]: > 16 µg/mL
MIC [12]: 0.12 µg/mL (≈ 0.294 µM)
MIC [13]: 0.5 µg/mL (≈ 1.22 µM)
MIC [14]: 8 µg/mL (≈ 19.6 µM)
MIC [15]: > 16 µg/mL
MIC [16]: 4 µg/mL (≈ 9.79 µM)
MIC [17]: 4 µg/mL (≈ 9.79 µM)
MIC [18]: 0.06 µg/mL (≈ 0.147 µM)
MIC [19]: 0.06 µg/mL (≈ 0.147 µM)
MIC [20]: 0.5 µg/mL (≈ 1.22 µM)
MIC [21]: 8 µg/mL (≈ 19.6 µM)
MIC [22]: 0.25 µg/mL (≈ 0.612 µM)
MIC (Citrobacter div. K 82-24): 0.25 µg/mL (≈ 0.612 µM)
MIC [23]: > 16 µg/mL
MIC [24]: 1 µg/mL (≈ 2.45 µM)
MIC [25]: 0.12 µg/mL (≈ 0.294 µM)
MIC [26]: 0.25 µg/mL (≈ 0.612 µM)
MIC [27]: 0.5 µg/mL (≈ 1.22 µM)
MIC [28]: 0.5 µg/mL (≈ 1.22 µM)
MIC [29]: 16 µg/mL (≈ 39.2 µM)
MIC [30]: 1 µg/mL (≈ 2.45 µM)
MIC [31]: 0.5 µg/mL (≈ 1.22 µM)
MIC [32]: 1 µg/mL (≈ 2.45 µM)
MIC [33]: 1 µg/mL (≈ 2.45 µM)
MIC ([34]; 18 hours): 0.06 µg/mL (≈ 0.147 µM)
MIC ([34]; Escherichia coli, ATCC25922, 18 h, read-out: MIC): 0.03 µg/mL (≈ 0.0735 µM)
MIC [35]: 0.5 µg/mL (≈ 1.22 µM)
MIC [36]: 0.5 µg/mL (≈ 1.22 µM)
MIC [37]: 1 µg/mL (≈ 2.45 µM)
MIC [38]: 1 µg/mL (≈ 2.45 µM)

— patent US5210193A, “Piperazine derivatives” (American Cyanamid Company, priority 1990, dated 1993)
